Data reported in ChEMBL document CHEMBL1201862, “PubChem BioAssay data set” (2004).
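Results reflect a 48-hour exposure of cells in 96-well plates to compound at five concentrations. GI50 marks 50% less growth.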 Active and inactive are the calls of the source. Cut-off read from the data, not from the text of the source: active = GI50 up to about 1.1 µM and inactive = higher.

Key:
Assay in all cases: DTP human tumour cell line panel, 48 h
UACC-257 = test system: UACC-257
SF-539 = test system: SF-539
HCT-15 = test system: HCT-15
SR = test system: SR
SK-MEL-2 = test system: SK-MEL-2
SF-268 = test system: SF-268
NCI-H522 = test system: NCI-H522
HCC 2998 = test system: HCC 2998
TK-10 = test system: TK-10
MCF7 = test system: MCF7
CCRF-CEM = test system: CCRF-CEM
HOP-62 = test system: HOP-62
OVCAR-5 = test system: OVCAR-5
OVCAR-8 = test system: OVCAR-8
IGROV-1 = test system: IGROV-1
NCI-H226 = test system: NCI-H226
SW-620 = test system: SW-620
CAKI-1 = test system: CAKI-1
UO-31 = test system: UO-31
A549 = test system: A549
OVCAR-4 = test system: OVCAR-4
U-251 = test system: U-251
MOLT-4 = test system: MOLT-4
NCI-H23 = test system: NCI-H23
MDA-N = test system: MDA-N
PC-3 = test system: PC-3
HCT-116 = test system: HCT-116
HOP-92 = test system: HOP-92
T47D = test system: T47D
SF-295 = test system: SF-295
786-0 = test system: 786-0
SK-MEL-5 = test system: SK-MEL-5
NCI-H460 = test system: NCI-H460
SK-OV-3 = test system: SK-OV-3
HT-29 = test system: HT-29
KM12 = test system: KM12
LOX IMVI = test system: LOX IMVI
SNB-19 = test system: SNB-19
OVCAR-3 = test system: OVCAR-3
M14 = test system: M14
MDA-MB-435 = test system: MDA-MB-435
BT-549 = test system: BT-549
DU-145 = test system: DU-145
SN12C = test system: SN12C
A498 = test system: A498
K562 = test system: K562
SNB-75 = test system: SNB-75
RXF 393 = test system: RXF 393
MDA-MB-231 = test system: MDA-MB-231
COLO 205 = test system: COLO 205
UACC-62 = test system: UACC-62
Malme-3M = test system: Malme-3M
ACHN = test system: ACHN
EKVX = test system: EKVX
SK-MEL-28 = test system: SK-MEL-28
NCI/ADR-RES = test system: NCI/ADR-RES
RPMI-8226 = test system: RPMI-8226
Hs-578T = test system: Hs-578T
HL-60 = test system: HL-60

## CC(C)N1CCCOC(c2ccc([N+](=O)[O-])cc2)O1 (centres undefined)
UACC-257
  GI50: > 100 µM (inactive)
SF-539
  GI50: > 100 µM (inactive)
HCT-15
  GI50: > 100 µM
SR
  GI50: > 100 µM (inactive)
SK-MEL-2
  GI50: > 100 µM (inactive)
SF-268
  GI50: > 100 µM (inactive)
NCI-H522
  GI50: > 100 µM (inactive)
HCC 2998
  GI50: > 100 µM (inactive)
TK-10
  GI50: > 100 µM (inactive)
MCF7
  GI50: 80.9 µM (inactive)
CCRF-CEM
  GI50: > 100 µM (inactive)
HOP-62
  GI50: > 100 µM (inactive)
OVCAR-5
  GI50: > 100 µM (inactive)
OVCAR-8
  GI50: > 100 µM (inactive)
IGROV-1
  GI50: > 100 µM (inactive)
NCI-H226
  GI50: > 100 µM (inactive)
SW-620
  GI50: > 100 µM (inactive)
CAKI-1
  GI50: > 100 µM (inactive)
UO-31
  GI50: > 100 µM (inactive)
A549
  GI50: > 100 µM (inactive)
OVCAR-4
  GI50: > 100 µM (inactive)
U-251
  GI50: > 100 µM (inactive)
MOLT-4
  GI50: > 100 µM (inactive)
NCI-H23
  GI50: > 100 µM (inactive)
MDA-N
  GI50: > 100 µM (inactive)
PC-3
  GI50: > 100 µM (inactive)
HCT-116
  GI50: > 100 µM (inactive)
HOP-92
  GI50: > 100 µM (inactive)
T47D
  GI50: > 100 µM (inactive)
SF-295
  GI50: > 100 µM (inactive)
786-0
  GI50: > 100 µM (inactive)
SK-MEL-5
  GI50: 58.6 µM (inactive)
NCI-H460
  GI50: > 100 µM (inactive)
SK-OV-3
  GI50: > 100 µM (inactive)
HT-29
  GI50: > 100 µM (inactive)
KM12
  GI50: > 100 µM (inactive)
LOX IMVI
  GI50: > 100 µM (inactive)
SNB-19
  GI50: > 10 µM (inactive)
OVCAR-3
  GI50: > 100 µM (inactive)
M14
  GI50: > 100 µM (inactive)
MDA-MB-435
  GI50: > 100 µM (inactive)
BT-549
  GI50: > 100 µM (inactive)
DU-145
  GI50: > 100 µM (inactive)
SN12C
  GI50: > 100 µM (inactive)
A498
  GI50: > 100 µM (inactive)
K562
  GI50: > 100 µM (inactive)
SNB-75
  GI50: > 100 µM (inactive)
RXF 393
  GI50: > 100 µM (inactive)
MDA-MB-231
  GI50: > 100 µM (inactive)
COLO 205
  GI50: > 100 µM (inactive)
UACC-62
  GI50: > 100 µM (inactive)
Malme-3M
  GI50: > 100 µM (inactive)
ACHN
  GI50: > 100 µM (inactive)
EKVX
  GI50: > 100 µM (inactive)
SK-MEL-28
  GI50: > 100 µM (inactive)
NCI/ADR-RES
  GI50: > 100 µM (inactive)

## CCc1n[nH]c(=O)n1/N=C/c1ccccc1O
RPMI-8226
  GI50: > 100 µM (inactive)
UACC-257
  GI50: > 100 µM (inactive)
SF-539
  GI50: > 100 µM (inactive)
HCT-15
  GI50: > 100 µM
SR
  GI50: > 100 µM (inactive)
SK-MEL-2
  GI50: > 100 µM (inactive)
SF-268
  GI50: > 100 µM (inactive)
NCI-H522
  GI50: > 100 µM (inactive)
Hs-578T
  GI50: 28 µM (inactive)
HCC 2998
  GI50: > 100 µM (inactive)
TK-10
  GI50: > 100 µM (inactive)
MCF7
  GI50: > 100 µM (inactive)
CCRF-CEM
  GI50: > 100 µM (inactive)
HOP-62
  GI50: > 100 µM (inactive)
OVCAR-5
  GI50: > 100 µM (inactive)
OVCAR-8
  GI50: > 100 µM (inactive)
IGROV-1
  GI50: 64.9 µM (inactive)
SW-620
  GI50: > 100 µM (inactive)
UO-31
  GI50: > 100 µM (inactive)
A549
  GI50: > 100 µM (inactive)
OVCAR-4
  GI50: > 100 µM (inactive)
U-251
  GI50: > 100 µM (inactive)
MOLT-4
  GI50: > 100 µM (inactive)
NCI-H23
  GI50: > 100 µM (inactive)
MDA-N
  GI50: > 100 µM (inactive)
PC-3
  GI50: > 100 µM (inactive)
HCT-116
  GI50: > 100 µM (inactive)
HOP-92
  GI50: > 100 µM (inactive)
SF-295
  GI50: > 100 µM (inactive)
786-0
  GI50: > 100 µM (inactive)
SK-MEL-5
  GI50: > 100 µM (inactive)
SK-OV-3
  GI50: > 100 µM (inactive)
KM12
  GI50: > 100 µM (inactive)
LOX IMVI
  GI50: > 100 µM (inactive)
SNB-19
  GI50: > 100 µM (inactive)
OVCAR-3
  GI50: > 100 µM (inactive)
M14
  GI50: > 100 µM (inactive)
MDA-MB-435
  GI50: > 100 µM (inactive)
BT-549
  GI50: > 100 µM (inactive)
DU-145
  GI50: > 100 µM (inactive)
SN12C
  GI50: > 100 µM (inactive)
K562
  GI50: > 100 µM (inactive)
SNB-75
  GI50: > 100 µM (inactive)
RXF 393
  GI50: > 100 µM (inactive)
MDA-MB-231
  GI50: > 100 µM (inactive)
COLO 205
  GI50: > 100 µM (inactive)
UACC-62
  GI50: > 100 µM (inactive)
ACHN
  GI50: > 100 µM (inactive)
EKVX
  GI50: > 100 µM (inactive)
SK-MEL-28
  GI50: > 100 µM (inactive)
NCI/ADR-RES
  GI50: > 100 µM (inactive)

## CC(=O)N[C@@H](Cc1ccc(O)cn1)C(=O)NCc1ccc2c(c1)OCO2
RPMI-8226
  GI50: > 100 µM (inactive)
UACC-257
  GI50: > 100 µM (inactive)
SF-539
  GI50: > 100 µM (inactive)
HCT-15
  GI50: > 100 µM
SR
  GI50: > 100 µM (inactive)
SK-MEL-2
  GI50: > 100 µM (inactive)
SF-268
  GI50: > 100 µM (inactive)
NCI-H522
  GI50: > 100 µM (inactive)
Hs-578T
  GI50: > 100 µM (inactive)
HCC 2998
  GI50: > 100 µM (inactive)
TK-10
  GI50: > 100 µM (inactive)
MCF7
  GI50: > 100 µM (inactive)
CCRF-CEM
  GI50: > 100 µM (inactive)
HOP-62
  GI50: > 100 µM (inactive)
OVCAR-5
  GI50: > 100 µM (inactive)
OVCAR-8
  GI50: > 100 µM (inactive)
IGROV-1
  GI50: > 100 µM (inactive)
NCI-H226
  GI50: > 100 µM (inactive)
SW-620
  GI50: > 100 µM (inactive)
CAKI-1
  GI50: > 100 µM (inactive)
UO-31
  GI50: > 100 µM (inactive)
A549
  GI50: > 100 µM (inactive)
OVCAR-4
  GI50: > 100 µM (inactive)
U-251
  GI50: > 100 µM (inactive)
MOLT-4
  GI50: > 100 µM (inactive)
NCI-H23
  GI50: > 100 µM (inactive)
MDA-N
  GI50: > 100 µM (inactive)
PC-3
  GI50: > 100 µM (inactive)
HCT-116
  GI50: > 100 µM (inactive)
HOP-92
  GI50: > 100 µM (inactive)
T47D
  GI50: > 100 µM (inactive)
SF-295
  GI50: > 100 µM (inactive)
786-0
  GI50: > 100 µM (inactive)
SK-MEL-5
  GI50: > 100 µM (inactive)
NCI-H460
  GI50: > 100 µM (inactive)
SK-OV-3
  GI50: > 100 µM (inactive)
HT-29
  GI50: > 100 µM (inactive)
KM12
  GI50: > 100 µM (inactive)
LOX IMVI
  GI50: > 100 µM (inactive)
SNB-19
  GI50: > 100 µM (inactive)
OVCAR-3
  GI50: > 100 µM (inactive)
M14
  GI50: > 100 µM (inactive)
MDA-MB-435
  GI50: > 100 µM (inactive)
BT-549
  GI50: > 100 µM (inactive)
DU-145
  GI50: > 100 µM (inactive)
SN12C
  GI50: > 100 µM (inactive)
A498
  GI50: > 100 µM (inactive)
K562
  GI50: > 100 µM (inactive)
RXF 393
  GI50: > 100 µM (inactive)
COLO 205
  GI50: > 100 µM (inactive)
UACC-62
  GI50: > 100 µM (inactive)
Malme-3M
  GI50: > 100 µM (inactive)
ACHN
  GI50: > 100 µM (inactive)
EKVX
  GI50: > 100 µM (inactive)
SK-MEL-28
  GI50: > 100 µM (inactive)
HL-60
  GI50: > 100 µM (inactive)
NCI/ADR-RES
  GI50: > 100 µM (inactive)
